Settings: 343.15 K, Liquid, Vibrating tube method

CCCC(=O)OCC(COC(=O)CCC)(COC(=O)CCC)COC(=O)CCC [pentaerythritol tetrabutyrate]
Settings | mass density [kg/m3]
20390 kPa | 1023.3
20430 kPa | 1023.3
20478 kPa | 1023.4
20526 kPa | 1023.4
20575 kPa | 1023.5
20625 kPa | 1023.5
20668 kPa | 1023.6
20718 kPa | 1023.5
20770 kPa | 1023.6
20824 kPa | 1023.8
20870 kPa | 1023.6
20921 kPa | 1023.6
20960 kPa | 1023.7
20996 kPa | 1023.8
21033 kPa | 1023.8
21064 kPa | 1023.8
21100 kPa | 1023.9
21137 kPa | 1023.9
21173 kPa | 1023.9
21204 kPa | 1023.9
21241 kPa | 1024
21279 kPa | 1024
21316 kPa | 1024.1
21354 kPa | 1024.1
21386 kPa | 1024.2
21424 kPa | 1024.1
21463 kPa | 1024.1
21495 kPa | 1024.1
21534 kPa | 1024.1
21572 kPa | 1024.2
21612 kPa | 1024.2
21645 kPa | 1024.2
21684 kPa | 1024.3
21723 kPa | 1024.3
21763 kPa | 1024.3
21802 kPa | 1024.2
21835 kPa | 1024.3
21876 kPa | 1024.4
21916 kPa | 1024.4
21956 kPa | 1024.4
21990 kPa | 1024.5
22030 kPa | 1024.5
22071 kPa | 1024.4
22112 kPa | 1024.5
22146 kPa | 1024.5
22187 kPa | 1024.5
22220 kPa | 1024.6
22268 kPa | 1024.5
22310 kPa | 1024.7
22344 kPa | 1024.7
22387 kPa | 1024.8
22429 kPa | 1024.7
22472 kPa | 1024.8
22507 kPa | 1024.8
22548 kPa | 1024.8
22591 kPa | 1024.7
22634 kPa | 1024.9
22670 kPa | 1024.9
22714 kPa | 1025
22756 kPa | 1025
22799 kPa | 1024.9
22842 kPa | 1025
22886 kPa | 1024.9
22970 kPa | 1025.2
23014 kPa | 1025.2
23052 kPa | 1025.2
23097 kPa | 1025.2
23142 kPa | 1025.2
23180 kPa | 1025.2
23226 kPa | 1025.3
23270 kPa | 1025.4
23317 kPa | 1025.4
23355 kPa | 1025.3
23400 kPa | 1025.4
23447 kPa | 1025.5
23494 kPa | 1025.6
23535 kPa | 1025.4
23582 kPa | 1025.6
23630 kPa | 1025.6
23676 kPa | 1025.6
23716 kPa | 1025.7
23763 kPa | 1025.7
24094 kPa | 1025.8
24137 kPa | 1026
24186 kPa | 1026
24236 kPa | 1025.8
24278 kPa | 1026.1
24328 kPa | 1026
24379 kPa | 1026
24431 kPa | 1026.1
24484 kPa | 1026.1
24528 kPa | 1026.2
24578 kPa | 1026.2
24621 kPa | 1026.3
24665 kPa | 1026.2
24708 kPa | 1026.3
24745 kPa | 1026.3
24788 kPa | 1026.3
24833 kPa | 1026.2
24870 kPa | 1026.4
24915 kPa | 1026.4
24959 kPa | 1026.4
25004 kPa | 1026.4
25049 kPa | 1026.5
25086 kPa | 1026.6
25132 kPa | 1026.5
25176 kPa | 1026.6
25223 kPa | 1026.7
25270 kPa | 1026.7
25308 kPa | 1026.7
25354 kPa | 1026.8
25401 kPa | 1026.7
25439 kPa | 1026.8
25486 kPa | 1026.9
25532 kPa | 1026.7
25579 kPa | 1026.8
25625 kPa | 1026.9
25665 kPa | 1027
26228 kPa | 1027.4
26277 kPa | 1027.4
26328 kPa | 1027.3
26378 kPa | 1027.4
26422 kPa | 1027.5
26476 kPa | 1027.5
26521 kPa | 1027.6
26574 kPa | 1027.5
26957 kPa | 1027.8
27040 kPa | 1027.8
27084 kPa | 1027.9
27121 kPa | 1027.9
27166 kPa | 1028
27211 kPa | 1027.9
27248 kPa | 1027.9
27293 kPa | 1028
27331 kPa | 1028.1
27416 kPa | 1028.1
27462 kPa | 1028.2
27508 kPa | 1028.2
27548 kPa | 1028.2
27598 kPa | 1028.2
27639 kPa | 1028.3
27688 kPa | 1028.2
27761 kPa | 1028.4
27799 kPa | 1028.6
27832 kPa | 1028.3
27872 kPa | 1028.4
27905 kPa | 1028.5
27944 kPa | 1028.4
27976 kPa | 1028.5
28014 kPa | 1028.6
28054 kPa | 1028.6
28087 kPa | 1028.5
28127 kPa | 1028.6
28281 kPa | 1028.7
28314 kPa | 1028.6
28355 kPa | 1028.7
28389 kPa | 1028.6
28430 kPa | 1028.9
28465 kPa | 1028.7
28506 kPa | 1028.8
28548 kPa | 1028.9
28583 kPa | 1028.8
28623 kPa | 1028.9
28658 kPa | 1029
28700 kPa | 1028.9
28735 kPa | 1029.1
28776 kPa | 1029
28818 kPa | 1029
28853 kPa | 1029.1
28895 kPa | 1029.1
28938 kPa | 1029.2
28973 kPa | 1029.2
29016 kPa | 1029.2
29052 kPa | 1029.3
29095 kPa | 1029.1
29138 kPa | 1029.2
29173 kPa | 1029.4
29217 kPa | 1029.4
29262 kPa | 1029.3
29299 kPa | 1029.4
29344 kPa | 1029.3
29386 kPa | 1029.4
29417 kPa | 1029.3
29455 kPa | 1029.4
29492 kPa | 1029.5
29524 kPa | 1029.5
29563 kPa | 1029.6
29744 kPa | 1029.6
29776 kPa | 1029.7
29815 kPa | 1029.6
29847 kPa | 1029.7
29886 kPa | 1029.7
29926 kPa | 1029.8
29959 kPa | 1029.8
29999 kPa | 1029.8
30033 kPa | 1030
30073 kPa | 1029.8
30115 kPa | 1029.9
30149 kPa | 1029.9
30190 kPa | 1029.9
30494 kPa | 1030.1
30523 kPa | 1030.1
30557 kPa | 1030.2
30591 kPa | 1030.2
30621 kPa | 1030.3
30656 kPa | 1030.2
30685 kPa | 1030.1
30721 kPa | 1030.3
30750 kPa | 1030.3
30945 kPa | 1030.3
30981 kPa | 1030.5
31016 kPa | 1030.3
31046 kPa | 1030.5
31082 kPa | 1030.5
31111 kPa | 1030.5
31147 kPa | 1030.5
31176 kPa | 1030.6
31212 kPa | 1030.4
31249 kPa | 1030.7
31280 kPa | 1030.7
31317 kPa | 1030.6
31347 kPa | 1030.6
31384 kPa | 1030.8
31414 kPa | 1030.8
31451 kPa | 1030.8
31487 kPa | 1030.8
31518 kPa | 1030.8
31554 kPa | 1030.8
31590 kPa | 1030.9
31621 kPa | 1030.9
31658 kPa | 1031
31688 kPa | 1030.9
31725 kPa | 1030.9
31763 kPa | 1031
31794 kPa | 1031
31831 kPa | 1030.9
31867 kPa | 1031.1
31898 kPa | 1031.1
31934 kPa | 1031.1
31970 kPa | 1031
32008 kPa | 1031.1
32044 kPa | 1031.1
32074 kPa | 1031.1
32111 kPa | 1031.4
32149 kPa | 1031.2
32255 kPa | 1031.2
32292 kPa | 1031.2
32329 kPa | 1031.2
32367 kPa | 1031.2
32398 kPa | 1031.5
32436 kPa | 1031.5
32474 kPa | 1031.3
32512 kPa | 1031.3
32544 kPa | 1031.4
32582 kPa | 1031.4
32621 kPa | 1031.5
32660 kPa | 1031.4
32699 kPa | 1031.6
32731 kPa | 1031.5
32769 kPa | 1031.5
32808 kPa | 1031.6
32846 kPa | 1031.6
32919 kPa | 1031.6
32958 kPa | 1031.8
33037 kPa | 1031.7
33070 kPa | 1031.8
33110 kPa | 1031.7
33151 kPa | 1031.7
33191 kPa | 1031.8
33231 kPa | 1032
33264 kPa | 1031.8
33304 kPa | 1032.1
33345 kPa | 1032.1
33379 kPa | 1032
33420 kPa | 1032.1
33461 kPa | 1032.1
33502 kPa | 1032.1
33951 kPa | 1032.4
33995 kPa | 1032.4
34033 kPa | 1032.3
34080 kPa | 1032.5
34127 kPa | 1032.4
34177 kPa | 1032.6
34220 kPa | 1032.5
34271 kPa | 1032.6
34323 kPa | 1032.5
34368 kPa | 1032.6
34420 kPa | 1032.7
34453 kPa | 1032.7
34484 kPa | 1032.7
34510 kPa | 1032.7
34517 kPa | 1032.7
34520 kPa | 1032.8

Reference: the NIST ThermoML archive (doi:10.1021/je060271a)
